Data as given in US20230009608A1, “GRK2 INHIBITORS AND USES THEREOF” (Cygnal Therapeutics, Inc., priority 2020, published 2023).
Read-outs that look alike come from different tables or passages of the source.

Columns and labels:
[1] = target: T1, GRK2 (Homo sapiens, UniProt P25098); assay: ADPGlo GRK2 Inhibition Assay (Example 8); format: biochemical; settings: read-out: A: Enzymatic GRK2: IC50 (nM) (Example 8)
T1 construct: purchased SignalChem A14-10G
T1 sequence (P25098 1-689): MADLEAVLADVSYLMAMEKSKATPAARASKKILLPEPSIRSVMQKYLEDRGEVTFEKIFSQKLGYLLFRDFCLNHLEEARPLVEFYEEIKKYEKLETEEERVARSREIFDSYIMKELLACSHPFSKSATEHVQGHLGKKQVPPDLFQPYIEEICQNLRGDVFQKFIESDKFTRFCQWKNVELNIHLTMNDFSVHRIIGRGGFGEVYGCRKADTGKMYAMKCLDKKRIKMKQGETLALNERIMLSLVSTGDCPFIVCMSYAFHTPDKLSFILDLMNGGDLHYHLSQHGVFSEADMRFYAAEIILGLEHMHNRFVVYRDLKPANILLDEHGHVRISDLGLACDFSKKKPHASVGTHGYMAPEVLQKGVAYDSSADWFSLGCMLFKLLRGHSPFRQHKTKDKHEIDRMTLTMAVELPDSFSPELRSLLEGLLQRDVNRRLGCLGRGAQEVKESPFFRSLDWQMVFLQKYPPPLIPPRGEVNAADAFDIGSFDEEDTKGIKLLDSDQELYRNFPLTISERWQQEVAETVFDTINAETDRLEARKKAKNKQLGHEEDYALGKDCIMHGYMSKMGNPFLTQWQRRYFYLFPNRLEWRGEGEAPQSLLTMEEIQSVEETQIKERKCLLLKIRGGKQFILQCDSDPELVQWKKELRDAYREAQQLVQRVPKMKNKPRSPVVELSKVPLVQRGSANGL
Outline: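 GRK2 (15 nM 2× enzyme solution) was preincubated 15 min with compound, then reacted 180 min at room temperature with 2× mix of 20 μM ATP plus GRKtide in HEPES pH 7.5, MgCl2, Tween-20, DTT. ADP was detected by ADP-Glo luminescence. Percent inhibition was normalised to enzyme and no-enzyme controls, with dose-response curves from threefold dilutions starting at 100 μM.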

[2] = tested on: PAXF1657 control empty vector cell line; assay: 7-day proliferation assay, PAXF1657 control empty vector cell line (Example 9); format: cell-based; settings: 168 h; Cell Line: PAXF1657 empty vector (EV) cell line; 7-day; read-out: C: 7-day proliferation assay: IC50 GeoMean
Outline: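 500 cells/well, RPMI1640 + 10% H.I. FBS, adhered overnight at 37° C. Compound 10-pt dilution, 30 μM-0.0002 μM final, 0.3% DMSO. 3 d, media + compound replaced, further 4 d. Viability by CellTiter-Glo; untreated plates read at time of dosing.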

[3] = Enzyme Assay A, ADPGlo (Example 8)

With `Cc1cnc(CNC(=O)c2cccc(NCc3nnc(-c4ccncn4)n3C)c2)c(C)c1` the IC50 [1, 3] was 10 nM and the IC50 [2] was over 10000 nM.
Compound `CC(NC(=O)c1cccc(NCc2nnc(-c3ccncn3)n2C)c1)c1nccn1C` (stereo not shown) has an IC50 [1, 3] of 24 nM and an IC50 [2] of 591 nM.
With `Cn1c(CNc2cccc(C(=O)N[C@@H](CCO)c3ccccc3)c2)nnc1-c1ccncn1` the IC50 [1, 3] was 65.9 nM and the IC50 [2] was 13100 nM.
`Cn1c(CNc2cccc(C(=O)N[C@@H]3COCc4c(Cl)cccc43)c2)nnc1-c1ccncc1F` showed an IC50 [1, 3] of 60.4 nM and an IC50 [2] of over 30000 nM.
In the case of `Cn1c(CNc2cccc(C(=O)NC(CCO)c3cccc(F)c3)c2)nnc1-c1ccncn1` (stereo not shown), the IC50 [1, 3] is reported as 37 nM and the IC50 [2] is reported as over 10000 nM.
With `CC(C)C(NC(=O)c1cccc(NCc2nnc(-c3ccncn3)n2C)c1)c1ccccn1` (stereo not shown) the IC50 ([1]; ADPGlo GRK2 enzyme assay) was 52.8 nM and the IC50 [2] was 1900 nM.
Work on `COc1cccc(CNC(=O)c2cccc(NCc3nnc(-c4ccncn4)n3C)c2)c1` yielded an IC50 [1, 3] of 22 nM and an IC50 [2] of over 30000 nM.
In the case of `COc1ccccc1CNC(=O)c1cccc(NCc2nnc(-c3ccncn3)n2C)c1`, the IC50 [1, 3] is reported as 20 nM and the IC50 [2] is reported as 1900 nM.
With `Cn1c(CNc2cccc(C(=O)NCc3cnccn3)c2)nnc1-c1ccncn1` the IC50 [1, 3] was 37 nM and the IC50 [2] was over 30000 nM.
For `COc1cccc([C@@H](C)NC(=O)c2cccc(NCc3nnc(-c4ccncc4)n3CCO)c2)c1`, the IC50 ([1]; ADPGlo GRK2 enzyme assay) was 99.4 nM and the IC50 [2] was over 30000 nM.
`CCCn1c(CNc2cccc(C(=O)NCc3c(F)cccc3S(=O)(=O)NC)c2)nnc1-c1ccncn1` was tested, and the IC50 [1, 3] was 22.2 nM and the IC50 [2] was over 3200 nM.
`Cn1c(CNc2cccc(C(=O)NCc3ccnnc3)c2)nnc1-c1ccncn1` was tested, and the IC50 [1, 3] was 43 nM and the IC50 [2] was over 30000 nM.
`COc1cccc([C@H](C)NC(=O)c2cccc(NCc3nnc4n3CCOc3cnccc3-4)c2)c1` gave an IC50 ([1]; ADPGlo GRK2 enzyme assay) of 6.52 nM and an IC50 [2] of 10100 nM.
`O=C(N[C@H]1COCc2c(Cl)cccc21)c1cccc(NCc2nnc(-c3ccncc3)n2CCO)c1` gave an IC50 [1, 3] of 7.18 nM and an IC50 [2] of over 30000 nM.
Compound `Cn1c(CNc2cccc(C(=O)N[C@@H]3COc4cc(F)ccc43)c2)nnc1-c1ccncn1` has an IC50 [1, 3] of 25.8 nM and an IC50 [2] of 117 nM.
For `Cn1c(CNc2cccc(C(=O)NC3(c4ccncn4)CC3)c2)nnc1-c1ccncn1`, the IC50 [1, 3] was 100 nM and the IC50 [2] was 726 nM.
With `C[C@H](NC(=O)c1cccc(NCc2nnc(-c3ccncc3F)n2C)c1)c1ncccc1Cl` the IC50 ([1]; ADPGlo GRK2 enzyme assay) was 52.8 nM and the IC50 [2] was 1030 nM.
For `Cc1ccccc1[C@H](C#N)NC(=O)c1cccc(NCc2nnc(-c3ccncn3)n2C)c1`, the IC50 ([1]; ADPGlo GRK2 enzyme assay) was 4.63 nM and the IC50 [2] was 30.4 nM.
With `Cn1c(CNc2cccc(C(=O)NCc3ccncc3Br)c2)nnc1-c1ccncn1` the IC50 ([1]; ADPGlo GRK2 enzyme assay) was 13.8 nM and the IC50 [2] was 633 nM.
Work on `COc1cccc([C@H](C)NC(=O)c2cccc(NCc3nnc(-c4ccncc4F)n3C)c2)c1` yielded an IC50 ([1]; ADPGlo GRK2 enzyme assay) of 11.6 nM and an IC50 [2] of over 30000 nM.
For `O=C(NCc1cnccn1)c1cccc(NCc2nnc(-c3ccncc3)[nH]2)c1`, the IC50 [1, 3] was 25 nM and the IC50 [2] was over 10000 nM.
`Cc1ccc(C(C)NC(=O)c2cccc(NCc3nnc(-c4ccncn4)n3C)c2)nc1` (stereo not shown) gave an IC50 ([1]; ADPGlo GRK2 enzyme assay) of 74 nM and an IC50 [2] of over 5020 nM.
For `O=C(NCc1nncn1C1CC1)c1cccc(NCc2nnc(-c3ccncc3)[nH]2)c1`, the IC50 [1, 3] was 45 nM and the IC50 [2] was over 10000 nM.
With `COc1cccc([C@H](C)NC(=O)c2ccnc(NCc3nnc(-c4ccncn4)n3C)c2)c1` the IC50 ([1]; ADPGlo GRK2 enzyme assay) was 125 nM and the IC50 [2] was 8000 nM.
With `C[C@H](NC(=O)c1cccc(NCc2nnc(-c3ccncn3)n2C)c1)c1cccnc1` [drawing 345] the IC50 [1, 3] was 420 nM and the IC50 [2] was over 8570 nM.
`Cn1c(CNc2cccc(C(=O)NCc3cnn4c3CCCC4)c2)nnc1-c1ccncn1` was tested, and the IC50 ([1]; ADPGlo GRK2 enzyme assay) was 71.6 nM and the IC50 [2] was over 24800 nM.
With `CCCC(NC(=O)c1cccc(NCc2nnc(-c3ccncn3)n2C)c1)c1ccccn1` (stereo not shown) the IC50 [1, 3] was 67 nM and the IC50 [2] was 1220 nM.
Compound `CCCn1c(CNc2cccc(C(=O)N[C@H](C)c3cccc(OC)c3)c2)nnc1-c1ccncn1` has an IC50 ([1]; ADPGlo GRK2 enzyme assay) of 40.1 nM and an IC50 [2] of over 219 nM.
`CCn1ncc(Cl)c1CNC(=O)c1cccc(NCc2nnc(-c3ccncc3)[nH]2)c1` gave an IC50 [1, 3] of 12 nM and an IC50 [2] of 560 nM.
In the case of `Cn1c(CNc2cccc(C(=O)NC(CO)c3ccc(F)cc3)c2)nnc1-c1ccncn1` (stereo not shown), the IC50 [1, 3] is reported as 14 nM and the IC50 [2] is reported as over 30000 nM.
Compound `COc1cccc(F)c1CNC(=O)c1cccc(NCc2nnc(-c3ccncn3)n2C)c1` has an IC50 [1, 3] of 16 nM and an IC50 [2] of 149 nM.
`CC(NC(=O)c1cccc(NCc2nnc(-c3ccncn3)n2C)c1)c1ccccn1` (stereo not shown) showed an IC50 [1, 3] of 29 nM and an IC50 [2] of 522 nM.
`CNc1ncccc1CNC(=O)c1cccc(NCc2nnc(-c3ccncn3)n2C)c1` gave an IC50 ([1]; ADPGlo GRK2 enzyme assay) of 18.3 nM and an IC50 [2] of 1630 nM.
`COc1nccc(C)c1CNC(=O)c1cccc(NCc2nnc(-c3ccncn3)n2C)c1` was tested, and the IC50 ([1]; ADPGlo GRK2 enzyme assay) was 37.3 nM and the IC50 [2] was 930 nM.
`Cn1c(CNc2cccc(C(=O)NC3COc4cccc(F)c43)c2)nnc1-c1ccncn1` (stereo not shown) gave an IC50 [1, 3] of 12 nM and an IC50 [2] of over 10000 nM.
`COc1ccncc1CNC(=O)c1cccc(NCc2nnc(-c3ccncn3)n2C)c1` was tested, and the IC50 ([1]; ADPGlo GRK2 enzyme assay) was 28.1 nM and the IC50 [2] was 5090 nM.
`Cn1c(CNc2cccc(C(=O)N[C@H](C#N)c3cc(F)ccc3F)c2)nnc1-c1ccncn1` gave an IC50 ([1]; ADPGlo GRK2 enzyme assay) of 17.7 nM and an IC50 [2] of 808 nM.
Work on `O=C(N[C@H]1COc2cc(F)ccc21)c1cccc(NCc2nnc(-c3ccncn3)n2CCO)c1` yielded an IC50 [1, 3] of 3.84 nM and an IC50 [2] of 256 nM.
`Cc1ccnc(CNC(=O)c2cccc(NCc3nnc(-c4ccncc4)[nH]3)c2)n1` was tested, and the IC50 [1, 3] was 15 nM and the IC50 [2] was over 10000 nM.
`Cn1c(CNc2cccc(C(=O)NC3C(=O)NCc4ccccc43)c2)nnc1-c1ccncn1` (stereo not shown) showed an IC50 ([1]; ADPGlo GRK2 enzyme assay) of 38.1 nM and an IC50 [2] of over 30000 nM.
`COc1cccc2c1CCC2NC(=O)c1cccc(NCc2nnc(-c3ccncn3)n2C)c1` (stereo not shown) was tested, and the IC50 [1, 3] was 15 nM and the IC50 [2] was 543 nM.
`COc1cccc([C@@H](C)NC(=O)c2cccc(NCc3nnc4n3CCOc3cnccc3-4)c2)c1` showed an IC50 ([1]; ADPGlo GRK2 enzyme assay) of 15.9 nM and an IC50 [2] of over 3650 nM.
Work on `CC(C)n1cnnc1CNC(=O)c1cccc(NCc2nnc(-c3ccncc3)[nH]2)c1` yielded an IC50 [1, 3] of 210 nM and an IC50 [2] of over 10000 nM.
In the case of `Cn1c(CNc2cccc(C(=O)NCc3cc(S(C)(=O)=O)ccc3F)c2)nnc1-c1ccncn1`, the IC50 ([1]; ADPGlo GRK2 enzyme assay) is reported as 52 nM and the IC50 [2] is reported as over 16000 nM.
`COc1cccc([C@@H](C)NC(=O)c2cccc(NCc3nnc(-c4ccncc4)n3C)c2)c1` gave an IC50 ([1]; ADPGlo GRK2 enzyme assay) of 7.61 nM and an IC50 [2] of over 30000 nM.
`Cn1c(CNc2cccc(C(=O)NCc3nc(C4CC4)no3)c2)nnc1-c1ccncn1` was tested, and the IC50 [1, 3] was 27 nM and the IC50 [2] was 5750 nM.
For `CC(C)C(NC(=O)c1cccc(NCc2nnc(-c3ccncn3)n2C)c1)c1ccncc1` (stereo not shown), the IC50 [1, 3] was 32 nM and the IC50 [2] was 1170 nM.
Work on `Cn1c(CNc2cccc(C(=O)NCc3ncccc3C(F)(F)F)c2)nnc1-c1ccncn1` yielded an IC50 [1, 3] of 17 nM and an IC50 [2] of over 10000 nM.
With `COc1cccc([C@H](C)NC(=O)c2cccc(NCc3nnc(-c4ccncc4)n3CCO)c2)c1` the IC50 ([1]; ADPGlo GRK2 enzyme assay) was 2.99 nM and the IC50 [2] was over 30000 nM.
`Cn1c(CNc2cccc(C(=O)NCc3ccccc3S(C)(=O)=O)c2)nnc1-c1ccncn1` was tested, and the IC50 ([1]; ADPGlo GRK2 enzyme assay) was 57.1 nM and the IC50 [2] was 1950 nM.
`COc1ncc(Br)cc1CNC(=O)c1cccc(NCc2nnc(-c3ccncc3)n2CCO)c1` was tested, and the IC50 ([1]; ADPGlo GRK2 enzyme assay) was 7.15 nM and the IC50 [2] was 15100 nM.
`Cn1c(CNc2cccc(C(=O)N[C@@H]3COc4cc(F)ccc43)c2)nnc1-c1ccncc1F` gave an IC50 [1, 3] of 22.7 nM and an IC50 [2] of 201 nM.
In the case of `Cn1c(CNc2cccc(C(=O)NCc3cccc4c3CCOC4)c2)nnc1-c1ccncn1`, the IC50 ([1]; ADPGlo GRK2 enzyme assay) is reported as 8.5 nM and the IC50 [2] is reported as over 30000 nM.
With `Cn1c(CNc2cccc(C(=O)NCc3cc(C#N)ccc3F)c2)nnc1-c1ccncn1` the IC50 ([1]; ADPGlo GRK2 enzyme assay) was 17.6 nM and the IC50 [2] was over 1280 nM.
`Cn1c(CNc2cccc(C(=O)N[C@@H]3COCc4ccccc43)c2)nnc1-c1ccncc1F` was tested, and the IC50 [1, 3] was 227 nM and the IC50 [2] was over 30000 nM.
`Cc1ccncc1CNC(=O)c1cccc(NCc2nnc(-c3ccncn3)n2C)c1` showed an IC50 [1, 3] of 13 nM and an IC50 [2] of 557 nM.
